ChEMBL document CHEMBL1201862, “PubChem BioAssay data set” (2004)
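Method: 48-hour compound exposure of cells in 96-well plates, five concentrations, linear interpolation of endpoints. GI50 = concentration required for 50% inhibition of growth.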 Active and inactive are the calls of the source. No stated cut-off is given here; in the data, active = GI50 up to about 1.1 µM and inactive = higher.

Assays:
Test in all cases: NCI tumour cell line growth inhibition, 48 h
786-0 = system: 786-0
M14 = system: M14
HOP-62 = system: HOP-62
HT-29 = system: HT-29
OVCAR-4 = system: OVCAR-4
RPMI-8226 = system: RPMI-8226
ACHN = system: ACHN
SR = system: SR
CAKI-1 = system: CAKI-1
UO-31 = system: UO-31
SK-OV-3 = system: SK-OV-3
OVCAR-3 = system: OVCAR-3
NCI-H460 = system: NCI-H460
IGROV-1 = system: IGROV-1
SW-620 = system: SW-620
T47D = system: T47D
MOLT-4 = system: MOLT-4
UACC-62 = system: UACC-62
HCC 2998 = system: HCC 2998
A498 = system: A498

Measured: GI50

O=c1oc2c(Cl)cc(Cl)cc2cc1C1=CSC2=NCCN12
inactive: 786-0 40.8 µM | M14 55.2 µM | HOP-62 38.8 µM | HT-29 61.2 µM | OVCAR-4 39.7 µM | RPMI-8226 58.9 µM | ACHN 49.7 µM | SR 40.6 µM | CAKI-1 52.2 µM | UO-31 29.3 µM | SK-OV-3 > 100 µM | OVCAR-3 26.7 µM | NCI-H460 57.5 µM | IGROV-1 48.8 µM | SW-620 50.5 µM | T47D 36.5 µM | MOLT-4 39.3 µM | UACC-62 51.9 µM

CN(C)c1ccc(-c2nc(-c3cc4c(ccc5ccccc54)oc3=O)cs2)cc1
inactive: 786-0 > 100 µM | M14 > 100 µM | HOP-62 > 100 µM | HT-29 > 100 µM | OVCAR-4 > 100 µM | HCC 2998 > 100 µM | RPMI-8226 > 100 µM | ACHN > 100 µM | SR > 100 µM | CAKI-1 > 100 µM | UO-31 > 100 µM | SK-OV-3 > 100 µM | NCI-H460 > 100 µM | IGROV-1 > 100 µM | SW-620 > 100 µM | T47D > 100 µM | MOLT-4 > 100 µM | UACC-62 > 100 µM

CCN(CC)CCO/N=C1/C=C2CCC3C(CC[C@@]4(C)C3CC[C@]4(C)O)[C@@]2(C)CC1 (some centres undefined)
inactive: 786-0 3.69 µM | M14 8.79 µM | HOP-62 4.06 µM | HT-29 1.82 µM | OVCAR-4 17.5 µM | HCC 2998 5.22 µM | RPMI-8226 4.28 µM | ACHN 5.87 µM | CAKI-1 4.52 µM | UO-31 5.41 µM | SK-OV-3 14.3 µM | OVCAR-3 2.8 µM | NCI-H460 3.41 µM | IGROV-1 4.8 µM | T47D 7.59 µM | MOLT-4 1.91 µM | UACC-62 2.76 µM
active: A498 0.195 µM

COc1ccc(CNc2nc(NCc3ccc(OC)cc3)nc(Nc3ccccc3)n2)cc1
inactive: 786-0 49.7 µM | M14 45.7 µM | HOP-62 > 100 µM | HT-29 1.93 µM | OVCAR-4 8.87 µM | RPMI-8226 8.34 µM | ACHN 13.1 µM | CAKI-1 3.35 µM | UO-31 > 100 µM | A498 39.1 µM | SK-OV-3 61.5 µM | OVCAR-3 2.62 µM | NCI-H460 7.16 µM | IGROV-1 9.71 µM | SW-620 6.46 µM | T47D > 100 µM | MOLT-4 3.01 µM | UACC-62 4.14 µM
active: SR 1.11 µM

COc1cc(-c2c3c(cc4c2OCO4)[C@@H](Nc2ccc4c(c2)Cc2cc(N[C@@H]5c6cc7c(cc6C(c6cc(OC)c(O)c(OC)c6)[C@H]6C(=O)OC[C@H]56)OCO7)ccc2-4)[C@H]2COC(=O)[C@@H]2C3)cc(OC)c1O (some centres undefined)
inactive: 786-0 18.5 µM | M14 21.9 µM | HOP-62 18.5 µM | HT-29 20 µM | RPMI-8226 > 100 µM | ACHN 47.8 µM | SR 11.6 µM | CAKI-1 23.4 µM | UO-31 21.9 µM | A498 44.3 µM | SK-OV-3 14.8 µM | OVCAR-3 55.5 µM | NCI-H460 17.3 µM | IGROV-1 1.56 µM | SW-620 49.8 µM | T47D 98.2 µM | MOLT-4 > 100 µM

COc1ccc(C(=O)/C=C/c2ccc(Oc3cc(C(=O)/C=C/c4ccc(O)cc4)c(O)cc3OC)cc2)c(O)c1 [RHUSCHALCONE I]
inactive: 786-0 2.51 µM | M14 4.74 µM | HOP-62 4.83 µM | HT-29 2.23 µM | OVCAR-4 3.23 µM | RPMI-8226 1.85 µM | ACHN 2.9 µM | SR 1.92 µM | CAKI-1 4.1 µM | UO-31 3.59 µM | A498 1.67 µM | SK-OV-3 9.86 µM | OVCAR-3 4.3 µM | NCI-H460 4.33 µM | IGROV-1 2.59 µM | SW-620 4.72 µM | T47D 4.99 µM | MOLT-4 2.52 µM | UACC-62 3.27 µM
